Measurements from ChEMBL document CHEMBL1795262, “Pyrazole-based sulfonamide and sulfamides as potent inhibitors of mammalian 15-lipoxygenase” (Bioorg Med Chem Lett, 2011).
In brackets after ≈: the same amount, converted by molar mass.

Target: T1, Polyunsaturated fatty acid lipoxygenase ALOX15 (Oryctolagus cuniculus, UniProt P12530)
T1 sequence (P12530 whole entry): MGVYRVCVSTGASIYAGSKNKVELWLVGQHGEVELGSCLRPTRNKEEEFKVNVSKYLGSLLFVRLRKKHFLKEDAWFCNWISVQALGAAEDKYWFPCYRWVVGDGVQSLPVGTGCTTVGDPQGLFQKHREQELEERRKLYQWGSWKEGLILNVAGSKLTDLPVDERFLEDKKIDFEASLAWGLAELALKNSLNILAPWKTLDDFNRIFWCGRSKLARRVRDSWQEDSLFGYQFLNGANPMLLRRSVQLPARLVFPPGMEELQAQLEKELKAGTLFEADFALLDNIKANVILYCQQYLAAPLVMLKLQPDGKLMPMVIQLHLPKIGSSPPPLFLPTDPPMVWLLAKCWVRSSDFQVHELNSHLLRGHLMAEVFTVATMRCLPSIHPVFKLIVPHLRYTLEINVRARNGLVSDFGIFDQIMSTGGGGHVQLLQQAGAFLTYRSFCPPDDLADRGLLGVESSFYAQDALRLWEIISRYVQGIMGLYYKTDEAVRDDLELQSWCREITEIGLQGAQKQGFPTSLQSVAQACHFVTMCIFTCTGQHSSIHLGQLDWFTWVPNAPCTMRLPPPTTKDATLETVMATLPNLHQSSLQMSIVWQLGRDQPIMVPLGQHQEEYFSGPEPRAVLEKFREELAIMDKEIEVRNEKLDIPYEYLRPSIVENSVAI
Assay: Inhibition of rabbit 15-LO using linoleic acid by standard colorimetric assay
`CCCCCc1ccc(S(=O)(=O)NCCc2c(-c3ccccc3)n[nH]c2-c2cccc(OC)c2)cc1` showed an IC50 of 68 nM. `CCN([C@@H]1CCN(C(C)(C)c2ccccc2)C1)S(=O)(=O)NCCc1c(-c2cccs2)n[nH]c1-c1cnccn1` showed an IC50 of 2.7 nM. In the case of `CCCCCc1ccc(S(=O)(=O)NCCc2c(-c3ccccc3)n[nH]c2Cc2ccccc2)cc1`, the IC50 is reported as 158 nM. With `CCCCCc1ccc(S(=O)(=O)NCCc2c(-c3cccs3)n[nH]c2-c2cc(C)on2)cc1` the IC50 was 10 nM. In the case of `CCCCCc1ccc(S(=O)(=O)NCCc2c(-c3ccc(OC)cc3)n[nH]c2CC(C)C)cc1`, the IC50 is reported as 305 nM. For `CCCCCc1ccc(S(=O)(=O)NCCc2c(-c3ccccc3OC)n[nH]c2-c2ccccc2)cc1`, the IC50 was 1220 nM. For `CCN([C@@H]1CCN([C@H](C)c2ccccc2)C1)S(=O)(=O)NCCc1c(-c2cccs2)n[nH]c1-c1cnccn1`, the IC50 was 5.3 nM. Work on `CCCCCc1ccc(S(=O)(=O)NCCc2c(-c3cccs3)n[nH]c2-c2ccccc2)cc1` yielded an IC50 of 11 nM. `CCCCCc1ccc(S(=O)(=O)NCCc2c(-c3ccc(OC)cc3)n[nH]c2C)cc1` showed an IC50 of 3980 nM. Molecule `CCCCCc1ccc(S(=O)(=O)NCCc2c(-c3ccccc3)n[nH]c2-c2ccc(OC)cc2)cc1` has an IC50 of 150 nM. `CCCCCc1ccc(S(=O)(=O)NCCc2c(-c3cccs3)n[nH]c2-c2cnccn2)cc1` showed an IC50 of 12 nM.

Target: T1, Polyunsaturated fatty acid lipoxygenase ALOX15
Assay: Inhibition of rabbit 15-LO using arachidonic acid by standard colorimetric assay
For `CCCCCc1ccc(S(=O)(=O)NCCc2c(-c3ccccc3)n[nH]c2-c2cccc(OC)c2)cc1`, the IC50 was 524 nM. With `CCN([C@@H]1CCN(C(C)(C)c2ccccc2)C1)S(=O)(=O)NCCc1c(-c2cccs2)n[nH]c1-c1cnccn1` the IC50 was 4.1 nM. Work on `CCCCCc1ccc(S(=O)(=O)NCCc2c(-c3ccccc3)n[nH]c2Cc2ccccc2)cc1` yielded an IC50 of 918 nM. For `CCCCCc1ccc(S(=O)(=O)NCCc2c(-c3cccs3)n[nH]c2-c2cc(C)on2)cc1`, the IC50 was 36 nM. `CCN([C@@H]1CCN([C@H](C)c2ccccc2)C1)S(=O)(=O)NCCc1c(-c2cccs2)n[nH]c1-c1cnccn1` showed an IC50 of 8.2 nM. In the case of `CCCCCc1ccc(S(=O)(=O)NCCc2c(-c3cccs3)n[nH]c2-c2ccccc2)cc1`, the IC50 is reported as 28 nM. Work on `CCCCCc1ccc(S(=O)(=O)NCCc2c(-c3ccccc3)n[nH]c2-c2ccc(OC)cc2)cc1` yielded an IC50 of 1560 nM. In the case of `CCCCCc1ccc(S(=O)(=O)NCCc2c(-c3cccs3)n[nH]c2-c2cnccn2)cc1`, the IC50 is reported as 65 nM.

Species: Oryctolagus cuniculus
Assay: Inhibition of 15-HETE production in New Zealand White rabbit whole blood at 10 uM by RP-HPLC
Assay type: functional
Molecule `CCN([C@@H]1CCN(C(C)(C)c2ccccc2)C1)S(=O)(=O)NCCc1c(-c2cccs2)n[nH]c1-c1cnccn1` has an inhibition at 10 µM of 63%. In the case of `CCN([C@@H]1CCN([C@H](C)c2ccccc2)C1)S(=O)(=O)NCCc1c(-c2cccs2)n[nH]c1-c1cnccn1`, the inhibition at 10 µM is reported as 55%.

Target: T2, Polyunsaturated fatty acid lipoxygenase ALOX12 (Homo sapiens) (UniProt P18054)
T2 sequence (whole entry): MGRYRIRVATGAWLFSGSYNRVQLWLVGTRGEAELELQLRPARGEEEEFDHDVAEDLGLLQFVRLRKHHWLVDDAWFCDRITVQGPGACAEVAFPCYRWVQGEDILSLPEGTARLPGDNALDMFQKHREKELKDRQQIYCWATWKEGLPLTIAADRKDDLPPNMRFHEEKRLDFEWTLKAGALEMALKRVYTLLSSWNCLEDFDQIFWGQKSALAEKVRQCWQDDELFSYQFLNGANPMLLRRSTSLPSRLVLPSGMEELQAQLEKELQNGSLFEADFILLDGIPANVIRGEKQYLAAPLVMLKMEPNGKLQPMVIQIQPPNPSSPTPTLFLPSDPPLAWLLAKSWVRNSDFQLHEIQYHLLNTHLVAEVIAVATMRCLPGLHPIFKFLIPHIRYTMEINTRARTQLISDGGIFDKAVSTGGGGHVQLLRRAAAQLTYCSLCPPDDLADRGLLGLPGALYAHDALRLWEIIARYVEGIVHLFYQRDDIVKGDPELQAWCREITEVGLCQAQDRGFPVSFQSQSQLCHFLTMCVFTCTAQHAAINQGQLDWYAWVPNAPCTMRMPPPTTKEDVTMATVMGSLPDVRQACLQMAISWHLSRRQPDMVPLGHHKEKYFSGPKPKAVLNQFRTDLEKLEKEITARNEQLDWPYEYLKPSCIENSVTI
Assay: Inhibition of 12-LO at 10 uM
In the case of `CCN([C@@H]1CCN(C(C)(C)c2ccccc2)C1)S(=O)(=O)NCCc1c(-c2cccs2)n[nH]c1-c1cnccn1`, the inhibition is reported as 35%. For `CCN([C@@H]1CCN([C@H](C)c2ccccc2)C1)S(=O)(=O)NCCc1c(-c2cccs2)n[nH]c1-c1cnccn1`, the inhibition was 38%.

System: not listed separately
Assay: Aqueous solubility of the compound in water at pH 6.5
`CCN([C@@H]1CCN(C(C)(C)c2ccccc2)C1)S(=O)(=O)NCCc1c(-c2cccs2)n[nH]c1-c1cnccn1` showed a solubility of 71 µg/mL (≈ 125 µM). `CCN([C@@H]1CCN([C@H](C)c2ccccc2)C1)S(=O)(=O)NCCc1c(-c2cccs2)n[nH]c1-c1cnccn1` showed a solubility of 71 µg/mL (≈ 129 µM).

Target: T3, Polyunsaturated fatty acid lipoxygenase ALOX15 (Homo sapiens) (UniProt P16050)
T3 sequence (whole entry): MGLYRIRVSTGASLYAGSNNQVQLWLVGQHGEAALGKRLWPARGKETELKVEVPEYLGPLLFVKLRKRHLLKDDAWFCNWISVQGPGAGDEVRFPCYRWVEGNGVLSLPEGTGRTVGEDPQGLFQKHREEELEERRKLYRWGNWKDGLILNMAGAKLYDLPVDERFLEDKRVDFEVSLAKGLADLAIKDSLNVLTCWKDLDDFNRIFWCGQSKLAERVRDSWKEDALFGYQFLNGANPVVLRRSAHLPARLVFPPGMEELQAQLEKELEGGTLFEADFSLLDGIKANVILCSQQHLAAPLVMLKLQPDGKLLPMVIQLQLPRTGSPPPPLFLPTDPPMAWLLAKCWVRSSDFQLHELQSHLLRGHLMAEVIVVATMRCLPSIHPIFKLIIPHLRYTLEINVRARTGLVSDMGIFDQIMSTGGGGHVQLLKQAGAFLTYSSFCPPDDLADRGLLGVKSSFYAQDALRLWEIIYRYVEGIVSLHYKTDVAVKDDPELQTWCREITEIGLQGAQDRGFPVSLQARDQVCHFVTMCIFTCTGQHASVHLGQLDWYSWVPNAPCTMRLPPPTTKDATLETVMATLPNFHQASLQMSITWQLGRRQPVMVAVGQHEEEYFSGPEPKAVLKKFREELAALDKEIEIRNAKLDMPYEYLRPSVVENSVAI
Assay: Inhibition of human 15-LO expressed in CHO cells at 3 uM by cell-based assay
Molecule `CCN([C@@H]1CCN(C(C)(C)c2ccccc2)C1)S(=O)(=O)NCCc1c(-c2cccs2)n[nH]c1-c1cnccn1` has an inhibition of 83%. For `CCN([C@@H]1CCN([C@H](C)c2ccccc2)C1)S(=O)(=O)NCCc1c(-c2cccs2)n[nH]c1-c1cnccn1`, the inhibition was 61%.

Target: T4, Polyunsaturated fatty acid 5-lipoxygenase (Homo sapiens) (UniProt P09917)
T4 sequence (whole entry): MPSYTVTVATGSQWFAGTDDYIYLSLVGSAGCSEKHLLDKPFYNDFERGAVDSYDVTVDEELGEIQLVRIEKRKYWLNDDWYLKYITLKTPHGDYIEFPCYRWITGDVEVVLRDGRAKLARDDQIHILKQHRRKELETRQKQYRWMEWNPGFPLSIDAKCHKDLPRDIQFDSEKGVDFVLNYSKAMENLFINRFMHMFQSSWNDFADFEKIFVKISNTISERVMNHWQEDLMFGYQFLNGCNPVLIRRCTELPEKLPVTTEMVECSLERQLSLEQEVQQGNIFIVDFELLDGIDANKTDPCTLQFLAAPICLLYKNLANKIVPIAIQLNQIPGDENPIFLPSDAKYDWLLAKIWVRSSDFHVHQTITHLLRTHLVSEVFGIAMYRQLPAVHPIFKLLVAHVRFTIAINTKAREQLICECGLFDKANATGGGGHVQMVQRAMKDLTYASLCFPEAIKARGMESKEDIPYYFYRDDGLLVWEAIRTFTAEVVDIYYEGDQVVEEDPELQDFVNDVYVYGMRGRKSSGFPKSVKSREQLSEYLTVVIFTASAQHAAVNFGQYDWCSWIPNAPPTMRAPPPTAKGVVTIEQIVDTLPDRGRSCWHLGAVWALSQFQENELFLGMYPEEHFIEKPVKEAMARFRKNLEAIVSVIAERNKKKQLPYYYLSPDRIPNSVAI
Assay: Inhibition of 5-LO at 10 uM
For `CCN([C@@H]1CCN(C(C)(C)c2ccccc2)C1)S(=O)(=O)NCCc1c(-c2cccs2)n[nH]c1-c1cnccn1`, the inhibition was 60%. `CCN([C@@H]1CCN([C@H](C)c2ccccc2)C1)S(=O)(=O)NCCc1c(-c2cccs2)n[nH]c1-c1cnccn1` showed an inhibition of 68%.
